Here are results for 22 compounds from US12643871B2, “Aryl formamide compound containing chiral sulfur oxide or salt thereof, preparation method, herbicidal composition and use thereof” (Qingdao Kingagroot Chemical Compound Co., Ltd., priority 2019, dated 2026).

The subject of one assay is Amaranthus retroflexus. Nature of the assay: Weeding effect in post-emergence stage. The format is in vivo. Conditions: 250 g/ha; 2 leaf stage; 15 days after application; fresh weight control rate. The source says: (§1) The activity level criteria for harmful plant damage (i.e., growth control rate) are as follows: • Level 5: growth control rate is above 85%; • Level 4: growth control rate is greater than or equal to 60% and less than 85%; • Level 3: growth control rate is greater than or equal to 40% and less than 60%; • Level 2: growth control rate is greater than or equal to 20% and less than 40%; • Level 1: growth control rate is greater than or equal to 5% and less than 20%; • Level 0: growth control rate is less than 5%.
(§2) The above growth control rates are fresh weight control rates.
(§3) Experiment on weeding effect in post-emergence stage: monocotyledonous and dicotyledonous weed seeds (Descurainia sophia, Capsella bursa-pastoris, Galium aparine, Stellaria media, Lithospermum arvense, Rorippa indica, Alopecurus aequalis, Beckmannia syzigachne, Sclerochloa dura, Phleum paniculatum, Bromus japonicus, Aegilops tauschii, Phalaris arundinacea, Amaranthus retroflexus, Chenopodiaceae, Commelina communis, Sonchus arvensis, convolvulus arvensis, Cirsium setosum, Solanum nigrum, Acalypha australis, Digitaria sanguinalis, Echinochloa crusgalli, Setaria viridis, Setaria glauca, Leptochloa chinensis, Monochoria vaginalis, Sagittaria trifolia, Scirpus juncoides, Cyperus rotundus, Cyperus iria, Cyperus difformis, Fimbristylis, Portulaca oleracea, Xanthium sibiricum, Pharbitis nil) and major crop seeds (wheat, corn, rice, soybean, cotton, oilseed rape, millet, sorghum, potato, sesame, ricinus) were placed in plastic pots filled with soil, then covered with 0.5-2 cm of soil, allowed to grow in a good greenhouse environment. After 2 weeks of sowing, the test plants were treated in the 2 leaf stage. The tested compounds of the present invention were respectively dissolved in acetone, then added with Tween 80 and 1.5 liter/ha of emulsifiable concentrate of methyl oleate as synergist, diluted with a certain amount of water to obtain a solution with a certain concentration, and sprayed with a spray tower onto the plants. After the application, the plants were cultured for 15 days in the greenhouse, and then the experimental results of the weeding were counted. The doses of the used compounds were 500, 250, 125, 60, 30, 15 g/ha, and the averages were obtained by repeating for three times.

Another assay deals with Echinochloa crusgali. Nature of the assay: Weeding effect in post-emergence stage. In kind it is in vivo. Conditions: 250 g/ha; 2 leaf stage; 15 days after application; fresh weight control rate.
Description: as §1, §2, §3

Take `COC(=O)CC[S@@+]([O-])c1c(C(F)(F)F)ccc(C(=O)Nc2nnc(C)o2)c1OC` [Compound 354]: the “weeding effect in post-emergence stage, activity level (growth control rate), Amaranthus retroflexus” value (shortened to “weeding effect … Amaranthus retroflexus”) in the assay with Amaranthus retroflexus is listed as 5 (Level 5: growth control rate is above 85%). The “weeding effect in post-emergence stage, activity level (growth control rate), Echinochloa crusgali” value (“weeding effect … Echinochloa crusgali” for short) in the assay on Echinochloa crusgali was 5 (Level 5: growth control rate is above 85%).
For the compound `COc1c(C(=O)Nc2nnc(C)o2)ccc(C(F)(F)F)c1[S+]([O-])COC(=O)C(C)(C)C` (centres unmarked) [Compound 355], the “weeding effect … Amaranthus retroflexus” value in the assay with Amaranthus retroflexus is recorded as 5 (Level 5: growth control rate is above 85%). For the same compound, the “weeding effect … Echinochloa crusgali” value in the assay with Echinochloa crusgali is reported as 5 (Level 5: growth control rate is above 85%).
Take `COc1c(C(=O)Nc2nnc(C)o2)ccc(C(F)(F)F)c1[S@+]([O-])Cc1cn(C)nc1C` [Compound 356]: the “weeding effect … Amaranthus retroflexus” value with Amaranthus retroflexus is recorded as 5 (Level 5: growth control rate is above 85%). Besides, the “weeding effect … Echinochloa crusgali” value in the assay on Echinochloa crusgali was 5 (Level 5: growth control rate is above 85%).
Turning to `CCCn1nnnc1NC(=O)c1ccc(C(F)(F)F)c([S@+]([O-])CCC)c1F` [Compound 383], the “weeding effect … Amaranthus retroflexus” value with Amaranthus retroflexus is 5 (Level 5: growth control rate is above 85%). The “weeding effect … Echinochloa crusgali” value in the assay on Echinochloa crusgali is 5 (Level 5: growth control rate is above 85%).
As for `CC[S@@+]([O-])c1c(C(F)(F)F)ccc(C(=O)Nc2nnc(C(C)C)o2)c1OC` [Compound 425], the “weeding effect … Amaranthus retroflexus” value in the assay on Amaranthus retroflexus is listed as 5 (Level 5: growth control rate is above 85%). Further, the “weeding effect … Echinochloa crusgali” value in the assay on Echinochloa crusgali is recorded as 5 (Level 5: growth control rate is above 85%).
`CC[S@@+]([O-])c1c(C(F)(F)F)ccc(C(=O)Nc2nnc(C3CC3)o2)c1OC` [Compound 428]: in the assay with Amaranthus retroflexus, the “weeding effect … Amaranthus retroflexus” value is 5 (Level 5: growth control rate is above 85%). Besides, the “weeding effect … Echinochloa crusgali” value with Echinochloa crusgali is 5 (Level 5: growth control rate is above 85%).
Turning to `CCCCn1nnnc1NC(=O)c1ccc(C(F)(F)F)c([S@+]([O-])CC)c1OC` [Compound 448], the “weeding effect … Amaranthus retroflexus” value in the assay with Amaranthus retroflexus was 5 (Level 5: growth control rate is above 85%). Further, the “weeding effect … Echinochloa crusgali” value with Echinochloa crusgali is on record as 5 (Level 5: growth control rate is above 85%).
On to `CC[S@@+]([O-])c1c(C(F)(F)F)ccc(C(=O)Nc2ccon2)c1OC` [Compound 457], for which, in the assay on Amaranthus retroflexus, the “weeding effect … Amaranthus retroflexus” value is 5 (Level 5: growth control rate is above 85%). The “weeding effect … Echinochloa crusgali” value in the assay with Echinochloa crusgali is 5 (Level 5: growth control rate is above 85%).
As to `CC[S@@+]([O-])c1c(C(F)(F)F)ccc(C(=O)Nc2nocc2C)c1OC` [Compound 458], the “weeding effect … Amaranthus retroflexus” value with Amaranthus retroflexus was 5 (Level 5: growth control rate is above 85%). Also, in the assay on Echinochloa crusgali, the “weeding effect … Echinochloa crusgali” value was 5 (Level 5: growth control rate is above 85%).
Consider `CC[S@@+]([O-])c1c(C(F)(F)F)ccc(C(=O)Nc2ncnn2C)c1OC` [Compound 471], for which the “weeding effect … Amaranthus retroflexus” value in the assay on Amaranthus retroflexus is recorded as 5 (Level 5: growth control rate is above 85%). Further, in the assay with Echinochloa crusgali, the “weeding effect … Echinochloa crusgali” value is listed as 5 (Level 5: growth control rate is above 85%).
Consider `Cc1ccc(C(=O)Nc2nnnn2C)c(C)c1[S@+]([O-])C(C)C` [Compound 476], for which the “weeding effect … Amaranthus retroflexus” value in the assay on Amaranthus retroflexus is 5 (Level 5: growth control rate is above 85%). In addition, the “weeding effect … Echinochloa crusgali” value in the assay on Echinochloa crusgali is recorded as 5 (Level 5: growth control rate is above 85%).
Regarding `Cc1ccc(C(=O)Nc2nnnn2C)c(C)c1[S@+]([O-])CC(C)C` [Compound 477], the “weeding effect … Amaranthus retroflexus” value in the assay with Amaranthus retroflexus is recorded as 5 (Level 5: growth control rate is above 85%). The “weeding effect … Echinochloa crusgali” value with Echinochloa crusgali is reported as 5 (Level 5: growth control rate is above 85%).
Turning to `Cc1ccc(C(=O)Nc2nnnn2C)c(C)c1[S@+]([O-])CC(F)(F)F` [Compound 478], the “weeding effect … Amaranthus retroflexus” value with Amaranthus retroflexus is given as 5 (Level 5: growth control rate is above 85%). The “weeding effect … Echinochloa crusgali” value with Echinochloa crusgali is listed as 5 (Level 5: growth control rate is above 85%).
For the compound `CC[S@@+]([O-])c1c(C)ccc(C(=O)Nc2nnc(C)o2)c1C` [Compound 481], the “weeding effect … Amaranthus retroflexus” value with Amaranthus retroflexus is on record as 5 (Level 5: growth control rate is above 85%). For the same compound, the “weeding effect … Echinochloa crusgali” value in the assay on Echinochloa crusgali was 5 (Level 5: growth control rate is above 85%).
For `CCC[S@@+]([O-])c1c(C)ccc(C(=O)Nc2nnc(C)o2)c1C` [Compound 482], the “weeding effect … Amaranthus retroflexus” value in the assay on Amaranthus retroflexus is recorded as 5 (Level 5: growth control rate is above 85%). Also, the “weeding effect … Echinochloa crusgali” value in the assay with Echinochloa crusgali is on record as 5 (Level 5: growth control rate is above 85%).
As for `Cc1nnc(NC(=O)c2ccc(C)c([S@+]([O-])C(C)C)c2C)o1` [Compound 483], the “weeding effect … Amaranthus retroflexus” value in the assay with Amaranthus retroflexus is listed as 5 (Level 5: growth control rate is above 85%). In addition, the “weeding effect … Echinochloa crusgali” value with Echinochloa crusgali is listed as 5 (Level 5: growth control rate is above 85%).
For the compound `Cc1nnc(NC(=O)c2ccc(C)c([S@+]([O-])CC(C)C)c2C)o1` [Compound 484], in the assay with Amaranthus retroflexus, the “weeding effect … Amaranthus retroflexus” value was 5 (Level 5: growth control rate is above 85%). Further, the “weeding effect … Echinochloa crusgali” value with Echinochloa crusgali is recorded as 5 (Level 5: growth control rate is above 85%).
Regarding `Cc1nnc(NC(=O)c2ccc(C)c([S@+]([O-])CC(F)(F)F)c2C)o1` [Compound 485], the “weeding effect … Amaranthus retroflexus” value in the assay with Amaranthus retroflexus was 5 (Level 5: growth control rate is above 85%). Also, the “weeding effect … Echinochloa crusgali” value with Echinochloa crusgali was 5 (Level 5: growth control rate is above 85%).
Consider `Cc1nnc(NC(=O)c2ccc(C(C)C)c([S@@+](C)[O-])c2C)o1` [Compound 486], for which the “weeding effect … Amaranthus retroflexus” value in the assay on Amaranthus retroflexus is 5 (Level 5: growth control rate is above 85%). In addition, the “weeding effect … Echinochloa crusgali” value in the assay on Echinochloa crusgali is listed as 5 (Level 5: growth control rate is above 85%).
As for `Cc1nnc(NC(=O)c2ccc(S(C)(=O)=O)c([S@@+](C)[O-])c2C)o1` [Compound 491], the “weeding effect … Amaranthus retroflexus” value in the assay with Amaranthus retroflexus was 5 (Level 5: growth control rate is above 85%). Moreover, in the assay with Echinochloa crusgali, the “weeding effect … Echinochloa crusgali” value was 5 (Level 5: growth control rate is above 85%).
Turning to `CCC[S@@+]([O-])c1c(S(C)(=O)=O)ccc(C(=O)Nc2nnc(C)o2)c1C` [Compound 492], the “weeding effect … Amaranthus retroflexus” value in the assay with Amaranthus retroflexus is given as 5 (Level 5: growth control rate is above 85%). The “weeding effect … Echinochloa crusgali” value in the assay on Echinochloa crusgali is on record as 5 (Level 5: growth control rate is above 85%).
As for `Cc1nnc(NC(=O)c2ccc(S(C)(=O)=O)c([S@+]([O-])C(C)C)c2C)o1` [Compound 493], the “weeding effect … Amaranthus retroflexus” value in the assay on Amaranthus retroflexus is 5 (Level 5: growth control rate is above 85%). The “weeding effect … Echinochloa crusgali” value in the assay with Echinochloa crusgali was 5 (Level 5: growth control rate is above 85%).
